Experimental data: patent US8841413B2, “Antidiabetic compounds” (Cadila Healthcare Limited, priority 2006, dated 2014)
Like-named read-outs stand apart in the source and are kept apart here.

Tests used:
[1] = Stability in simulated gastric fluid; type: in vitro ADME; conditions: 2 μM, 37° C., pH 1.5, pepsin; for half-life: simulated gi fluid, read-out: half-life (t1/2) in simulated gastric fluid
Protocol: (§1) Reactions were terminated by the addition of TFA/H2O (15 mL, 10% (v/v)). […] The column was equilibrated with TFA/H2O, at a flow rate of 1 mL/min. […] The absorbance was monitored at 206 nm using UV detector and peaks were collected manually prior to ESI-MS analysis.

[2] = Stability in human plasma; type: in vitro ADME; conditions: 2 μM, 37° C.; for half-life: human, plasma, read-out: half-life (t1/2) in human plasma
Protocol: as §1

[3] = Stability against liver microsomes; type: in vitro ADME, human; conditions: 2 μM, 37° C.; for half-life: human, microsomes, read-out: half-life (t1/2) with liver microsomes
Protocol: as §1

Human GLP-1 receptor = target: T1, Human GLP-1 receptor (Homo sapiens, UniProt P43220); type: cell-based
T1 construct: The full-length cDNA was cloned in pcDNA3.1(+); expressed in transfected cells
T1 sequence (P43220 24-463): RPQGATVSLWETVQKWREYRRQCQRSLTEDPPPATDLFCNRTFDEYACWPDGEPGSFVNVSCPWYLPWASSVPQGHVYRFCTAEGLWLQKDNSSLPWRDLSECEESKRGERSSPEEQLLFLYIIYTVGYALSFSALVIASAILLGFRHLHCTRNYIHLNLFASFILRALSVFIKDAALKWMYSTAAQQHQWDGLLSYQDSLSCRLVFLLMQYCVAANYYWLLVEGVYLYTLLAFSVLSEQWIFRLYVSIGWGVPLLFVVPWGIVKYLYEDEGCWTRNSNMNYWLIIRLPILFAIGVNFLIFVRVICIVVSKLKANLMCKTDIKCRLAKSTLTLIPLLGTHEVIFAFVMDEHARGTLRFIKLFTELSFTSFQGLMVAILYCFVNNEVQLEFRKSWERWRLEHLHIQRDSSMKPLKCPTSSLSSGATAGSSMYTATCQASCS
Protocol: The novel peptidomimetics were screened for Human GLP-1 receptor (HGLP-1 R) agonist activity (in vitro), using the cAMP cell-based assay, in stably transfected CHO/human GLP1R cells. […] CHO cells were grown in Ham's F12 medium containing L-Glutamine (2 mM), HEPES (25 mM), NaHCO3 (1.1 g/L) and supplemented with NewBorn Calf Serum (NBCS; 10%), Penicillin (50 U/ml (v/v)) and Streptomycin (50 ug/ml (v/v)). Cells were split every 3 days 1:8.
The cDNA encoding the human GLP-1 receptor was isolated by RT-PCR according to standard protocol. The full-length cDNA was cloned in pcDNA3.1(+). […] Clones expressing the receptor were generated by G418 (800 μg/ml active, Sigma) selection. The stable clones were thereafter maintained at 500 ug/ml (G418). The selected clone was used between passages 9-25 for cAMP assays.
The trypsin was inactivated using Ham's F12 medium containing 10% NBCS and the cells were suspended in 2 ml of complete medium. […] The medium was aspirated off from the 12 well plate and the cells were washed once using Ham's F12 (plain). […] The cells were incubated with the test compounds for 30 min in humidified atmosphere and 37° C. After the incubation, the medium was removed and cells were washed once with plain Ham's F12. Subsequently, the cells were lysed by adding 500 ul of ice cold 0.1 N HCl to each well and shaking for 30 minutes at 200 rpm. […] The total cAMP was estimated from the sample according to the manufacturer's protocol using Cyclic AMP immunoassay kit (R&D systems, Minneapolis. MN). The remaining supernatant is used to determine the protein concentration using micro BCA (Sigma). Data is calculated as percent of control (Vehicle: water) and expressed as Mean±SD.

DPP IV = DPP IV (Homo sapiens, UniProt P27487); test: Stability against DPP IV enzyme; type: in vitro ADME; conditions: 2 μM, 37° C.; for half-life: read-out: half-life (t1/2) with DPP-IV enzyme
Chain of DPP IV (P27487 whole entry, species assumed): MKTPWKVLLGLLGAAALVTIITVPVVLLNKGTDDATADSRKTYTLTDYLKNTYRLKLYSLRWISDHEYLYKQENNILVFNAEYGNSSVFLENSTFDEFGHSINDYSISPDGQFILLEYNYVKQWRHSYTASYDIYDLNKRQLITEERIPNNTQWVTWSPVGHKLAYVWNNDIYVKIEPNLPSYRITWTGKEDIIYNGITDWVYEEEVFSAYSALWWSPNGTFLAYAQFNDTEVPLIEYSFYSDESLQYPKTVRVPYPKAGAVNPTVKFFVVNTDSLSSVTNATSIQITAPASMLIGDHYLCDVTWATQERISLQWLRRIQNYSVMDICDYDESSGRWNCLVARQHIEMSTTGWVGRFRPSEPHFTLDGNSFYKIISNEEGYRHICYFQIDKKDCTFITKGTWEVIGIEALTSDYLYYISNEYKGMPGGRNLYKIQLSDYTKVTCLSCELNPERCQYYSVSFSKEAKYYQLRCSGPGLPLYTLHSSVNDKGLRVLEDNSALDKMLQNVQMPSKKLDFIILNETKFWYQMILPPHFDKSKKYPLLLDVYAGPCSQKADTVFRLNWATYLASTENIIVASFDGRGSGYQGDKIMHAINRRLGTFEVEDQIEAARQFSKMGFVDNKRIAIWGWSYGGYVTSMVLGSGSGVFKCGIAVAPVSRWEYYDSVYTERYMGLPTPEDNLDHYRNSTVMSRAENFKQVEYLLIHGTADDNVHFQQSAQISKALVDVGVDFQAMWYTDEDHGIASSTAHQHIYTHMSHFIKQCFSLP
Protocol: as §1

[4] = Stability in simulated intestinal fluid; type: in vitro ADME; conditions: 2 μM, 37° C., pH 7.5; for half-life: simulated gi fluid, read-out: half-life (t1/2) in simulated intestinal fluid
Protocol: as §1

SMILES	% degradation in 24 h when incubated with simulated gastric fluid [1] [%]	half-life [1] [h]	% degradation in 24 h when incubated with human plasma [2] [%]	half-life [2] [h]	% degradation in 24 h when incubated with liver microsomes [3] [%]	half-life [3] [h]	Human GLP-1 R activity (cAMP release), % activity with respect to control (Human GLP-1 receptor; 1 nM test compound) [%]	Human GLP-1 R activity (cAMP release), % activity with respect to control (Human GLP-1 receptor; 10 nM test compound) [%]	Human GLP-1 R activity (cAMP release), % activity with respect to control (Human GLP-1 receptor; 100 nM test compound) [%]	Human GLP-1 R activity (cAMP release), % activity with respect to control (Human GLP-1 receptor; 1 μM test compound) [%]	Human GLP-1 R activity (cAMP release), % activity with respect to control (Human GLP-1 receptor; 10 μM test compound) [%]	% degradation in 24 h when incubated with DPP-IV enzyme (DPP IV) [%]	half-life (DPP IV) [h]	% degradation in 24 h when incubated with simulated intestinal fluid [4] [%]	half-life [4] [h]	half-life (t1/2) with liver microsomes [3]
CCc1cc(OC)ccc1-c1ccc(CC(NC(=O)[C@H](CC(=O)O)NC(=O)[C@H](CO)NC(=O)[C@@H](NC(=O)[C@H](Cc2ccccc2)NC(=O)[C@@H](NC(=O)CNC(=O)[C@H](CCC(N)=O)NC(=O)C2(NC(=O)[C@@H](N)Cc3c[nH]cn3)CC2)[C@@H](C)O)[C@@H](C)O)C(=O)NC(Cc2ccc(-c3ccccc3C)nc2)C(N)=O)cc1 (single isomer, unassigned) [compound 18]	52	4	00	> 24	81	2	86 ± 0.11	99 ± 0.09	99 ± 0.06	99 ± 0.14	99 ± 0.19	00	> 24	00	> 24	–
CCc1cc(OC)ccc1-c1ccc(CC(NC(=O)[C@H](CC(=O)O)NC(=O)[C@H](CO)NC(=O)[C@@H](NC(=O)[C@H](Cc2ccccc2)NC(=O)[C@@H](NC(=O)CNC(=O)[C@H](CCC(N)=O)NC(=O)C2(NC(=O)[C@@H](N)Cc3c[nH]cn3)CC2)[C@@H](C)O)[C@@H](C)O)C(=O)NC(Cc2ccc(-c3ccccc3C)cc2)C(N)=O)cc1 (single isomer, unassigned) [compound 17]	49	4	00	> 24	82	2	78 ± 0.12	99 ± 0.15	99 ± 0.18	99 ± 0.03	99 ± 0.09	00	> 24	00	> 24	–
CCc1cc(OC)ccc1-c1ccc(CC(NC(=O)[C@H](CC(=O)O)NC(=O)[C@H](CO)NC(=O)[C@@H](NC(=O)C(C)(Cc2ccccc2F)NC(=O)[C@@H](NC(=O)CNC(=O)[C@H](CCC(N)=O)NC(=O)C(C)(C)NC(=O)[C@@H](N)Cc2c[nH]cn2)[C@@H](C)O)[C@@H](C)O)C(=O)NC(Cc2ccc(-c3ccccc3C)cc2)C(N)=O)cc1 (single isomer, unassigned) [compound 29]	00	> 24	00	> 24	35	–	99 ± 0.12	99 ± 0.15	99 ± 0.18	99 ± 0.03	99 ± 0.09	00	> 24	00	> 24	(5) h
CCc1cc(OC)ccc1-c1ccc(CC(NC(=O)[C@H](CC(=O)O)NC(=O)[C@H](CO)NC(=O)[C@@H](NC(=O)C(C)(Cc2ccccc2F)NC(=O)[C@@H](NC(=O)CNC(=O)[C@H](CCC(N)=O)NC(=O)C2(NC(=O)[C@@H](N)Cc3c[nH]cn3)CC2)[C@@H](C)O)[C@@H](C)O)C(=O)NC(Cc2ccc(-c3ccccc3C)nc2)C(N)=O)cc1 (single isomer, unassigned) [compound 34]	00	> 24	00	> 24	32	–	99 ± 0.12	99 ± 0.08	99 ± 0.11	99 ± 0.12	99 ± 0.16	00	> 24	00	> 24	(5) h
CCc1cc(OC)ccc1-c1ccc(CC(NC(=O)[C@H](CC(=O)O)NC(=O)[C@H](CO)NC(=O)[C@@H](NC(=O)[C@H](Cc2ccccc2)NC(=O)[C@@H](NC(=O)CNC(=O)[C@H](CCC(N)=O)NC(=O)C(C)(C)NC(=O)[C@@H](N)Cc2c[nH]cn2)[C@@H](C)O)[C@@H](C)O)C(=O)NC(Cc2ccc(-c3ccccc3C(F)(F)F)cc2)C(N)=O)cc1 (single isomer, unassigned) [compound 16]	43	4	00	> 24	84	2	69 ± 0.09	98 ± 0.07	99 ± 0.04	99 ± 0.01	99 ± 0.08	00	> 24	00	> 24	–
CCc1cc(OC)ccc1-c1ccc(CC(NC(=O)[C@H](CC(=O)O)NC(=O)[C@H](CO)NC(=O)[C@@H](NC(=O)C(C)(Cc2ccccc2F)NC(=O)[C@@H](NC(=O)CNC(=O)[C@H](CCC(N)=O)NC(=O)C(C)(C)NC(=O)[C@@H](N)Cc2c[nH]cn2)[C@@H](C)O)[C@@H](C)O)C(=O)NC(Cc2ccc(-c3ccccc3C)nc2)C(N)=O)cc1 (single isomer, unassigned) [compound 30]	00	> 24	00	> 24	33	–	93 ± 0.11	99 ± 0.09	99 ± 0.06	99 ± 0.14	99 ± 0.19	00	> 24	00	> 24	(5) h
CCc1cc(OC)ccc1-c1ccc(CC(NC(=O)[C@H](CC(=O)O)NC(=O)[C@H](CO)NC(=O)[C@@H](NC(=O)[C@H](Cc2ccccc2)NC(=O)[C@@H](NC(=O)CNC(=O)[C@H](CCC(N)=O)NC(=O)C(C)(C)NC(=O)[C@@H](N)Cc2c[nH]cn2)[C@@H](C)O)[C@@H](C)O)C(=O)NC(Cc2ccc(-c3ccccc3C)cc2)C(N)=O)cc1 (single isomer, unassigned) [compound 13]	50	4	00	> 24	86	2	60 ± 0.12	92 ± 0.15	98 ± 0.18	99 ± 0.03	99 ± 0.09	00	> 24	00	> 24	–
